Source: publication PMC10989073, “Antineoplastic effect of compounds C14 and P8 on TNBC and radioresistant TNBC cells by stabilizing the K-Ras4B^G13D/PDE6δ complex” (Frontiers in Oncology, 2024)

Experiments:
Assay type in all cases: cell-based, human
[1] = tested on: MCF-10A cells; assay: Apoptosis/necrosis assay (Annexin V–propidium iodide, flow cytometry); settings: 24 h, cisplatin 100 µM, doxorubicin 0.5 µM
Experimental: Apoptosis and necrosis were determined using the Apoptosis/Necrosis Detection kit (Abcam, Cambridge, UK) according to the manufacturer’s instructions. In brief, approximately 500,000 cells were seeded in 6-well plates (Corning) for 24 h. […] Cells were harvested and collected by centrifugation. All the samples were analyzed in triplicate using flow cytometry equipment FACSCalibur instrument (BD Biosciences, San Jose, CA, USA) at […] and 575-nm emission. Data analysis was performed using the FlowJo software (Tree Star Inc., Ashland, OR, USA). All experiments were performed in triplicate.

[2] = tested on: MDA-MB-231 cells; assay: as above; settings: MDA-MB-231, 24 h; C14 and P8 at IC50-24, cisplatin 100 µM, doxorubicin 0.5 µM
Experimental: (§1) To determine if the C14 and P8 compounds were able to evoke cell death by apoptosis or necrosis, cell lines MCF-10A, MDA-MB-231, and MDA-MB-231RR were treated at IC50-24 for 24 h. Apoptosis and necrosis were determined using the Apoptosis/Necrosis Detection kit (Abcam, Cambridge, UK) according to the manufacturer’s instructions. In brief, approximately 500,000 cells were seeded in 6-well plates (Corning) for 24 h. Then, each cell line was treated with the respective IC50-24 concentrations of C14 and P8. […] Cells were harvested and collected by centrifugation. All the samples were analyzed in triplicate using flow cytometry equipment FACSCalibur instrument (BD Biosciences, San Jose, CA, USA) at […] and 575-nm emission. Data analysis was performed using the FlowJo software (Tree Star Inc., Ashland, OR, USA). All experiments were performed in triplicate.

[3] = tested on: MDA-MB-231RR cells; assay: as above; settings: 24 h, C14 and P8 at IC50-24, cisplatin 100 µM, doxorubicin 0.5 µM
Experimental: as §1

[4] = tested on: MCF-10A cells; assay: Clonogenic assay; settings: 10 to 12 days, C14 and P8 at IC50-48, cisplatin 100 µM, doxorubicin 0.5 µM
Experimental: (§2) The principal aim of a clonogenic assay is to evaluate the effect of chemotherapy agents or new drugs by the measurement of their ability to arrest tumor cell division and their ability to develop new colonies after their exposure to these new drugs ([56]). Therefore, the colony formation ability of the cell lines MCF-10A, MDA-MB-231, and MDA-MB-231RR was evaluated after their exposure to the C14 and P8 compounds. In brief, breast cancer cell lines were cultured in 6-well plates (Corning), seeding 300 cells per well, and incubated at 37°C in 5% CO2 for 24 h. Compounds C14 and P8 were added at the maximum evaluated concentration IC50-48. As controls, cells without treatment and cells treated in the presence of a vehicle (DMSO at 0.66%) were employed (Sigma-Aldrich). […] After 10 days of treatment, cells were fixed with 4% PFA and stained with 0.1% crystal violet in citric acid (Sigma-Aldrich) for 15 minutes. Subsequently, the dye present in the cells was extracted using isopropanol and read at 570 nm in a Synergy-HTX microplate reader (BioTek). Each test was performed in triplicate. Data were expressed as % colonies relative to the untreated control ([56]).

[5] = tested on: MDA-MB-231 cells; assay: Clonogenic assay; settings: MDA-MB-231, 10 to 12 days; C14 and P8 at IC50-48, cisplatin 100 µM, doxorubicin 0.5 µM
Experimental: as §2

[6] = tested on: MDA-MB-231RR cells; assay: Clonogenic assay; settings: 10 to 12 days, C14 and P8 at IC50-48, cisplatin 100 µM, doxorubicin 0.5 µM
Experimental: as §2

[7] = tested on: Ras-GTP in MCF-10A cells; assay: Ras activation pull-down assay (Raf-RBD); settings: 3 h pre-treatment (C14, P8 at IC50-48H), EGF 100 ng/ml 10 min
Experimental: Subsequently, the cells were stimulated with epidermal growth factor (EGF) (100 ng/ml) for 10 minutes. Lysates (1 mg/ml) were exposed to Ras GTP-binding protein (Raf-RBD), following the manufacturer’s instructions. Experiments for each cell type and condition were repeated three times.

[8] = tested on: cyclin D1 and GSK3β in MDA-MB-231 cells; assay: Western blotting of cyclin D1 and GSK3β; settings: MDA-MB-231, 3 h; C14 and P8 at IC50-24 (Figure 7 legend), cisplatin 100 µM, doxorubicin 0.5 µM
Experimental: (§3) To determine the effect of the C14 and P8 compounds over the protein effectors of K-Ras4B, AKT, and ERK, immunoblotting assays were conducted with specific antibodies. In brief, MCF-10A, MDA-MB-231, and MDA-MB-231RR cells were plated in 100-mm culture dishes until 80% of confluents. Cell adhesion was allowed for 24 h. […] After pre-treatment, cells were stimulated with 100 ng/ml EGF for 10 minutes to promote AKT and ERK activation. Later, the whole-cell extracts were obtained by the lysis of the cells (Cytoskeleton) in the presence of proteases and phosphatase inhibitors. Subsequently, the protein extracts were incubated at 4°C for 40 minutes to be clarified by centrifugation for 10 minutes at 14,000 rpm, at 4°C. The protein concentration of each extract was determined by using the Precision Red Advanced Protein Assay Reagent (Cytoskeleton) Then, approximately 25 μg of protein extract was electrophoresed in 10% sodium dodecyl sulfate–polyacrylamide gel electrophoresis (SDS-PAGE) and transferred to polyvinylidene fluoride (PVDF) membranes (Millipore, Billerica, MA, USA). Blots were probed using the following primary antibodies: Total ERK (Cell Signaling, Danvers, MA, USA), pERK (Cell Signaling), Total AKT (Cell Signaling), pAKT (Cell Signaling), GSK3β (Cell Signaling), and cyclin D1 (Abcam) at a 1:1,000 dilution. As a control, an anti-GAPDH antibody (GeneTex, Irvine, CA, USA) was employed at a 1:100,000 dilution and γ-Tubulin (Invitrogen) 1:5,000. Densitometric analysis of blots was performed using the software ImageJ version 1.45 (National Institutes of Health, Bethesda, […], USA).

[9] = tested on: cyclin D1 and GSK3β in MDA-MB-231RR cells; assay: Western blotting of cyclin D1 and GSK3β; settings: 3 h, C14 and P8 at IC50-24 (Figure 7 legend), cisplatin 100 µM, doxorubicin 0.5 µM
Experimental: as §3

[10] = tested on: MDA-MB-231 cells; assay: Cell cycle analysis (propidium iodide, flow cytometry); settings: MDA-MB-231, 3 h at IC50-48H; control 10.0%
Experimental: After 3-h incubation, cells were harvested, washed twice in ice-cold PBS, and fixed overnight in 70% ethanol at 4°C. Then, cells were washed in PBS, collected by centrifugation, and stained with staining buffer (PBS with 50 µg/ml propidium iodide and 100 µg/ml RNase A).

SMILES: COc1cccc2c1C(=O)c1c(O)c3c(c(O)c1C2=O)C[C@@](O)(C(=O)CO)C[C@@H]3O[C@H]1C[C@H](N)[C@H](O)[C@H](C)O1 [Doxorubicin, doxorubicin, reference compound]
- apoptosis cells [1]: up to 11.54%
- apoptosis cells [2]: 4.65%
- necrosis [2]: 9.20%
- apoptosis cells [3]: 0.61%
- necrosis [3]: 1.28%
- reduction of colony growth [4]: up to 90%
- reduction in colony formation [5]: significant reduction
- reduction in colony formation [6]: 90%
- reduction in Ras-GTP [7]: 40%
- reduction in cyclin D1 expression [8]: no significant effect
- reduction in cyclin D1 [9]: 20%
- percentage of cells in G2/M [10]: increased
